Columns and labels:
[1] = test system: AsPC-1 cells; assay: XTT cell viability with caspase inhibitor pretreatment, AsPC-1; format: cell-based, human; settings: then DRA 72 h; for effect of caspase-3 inhibitor (z-DEVD-fmk) on the DRA effect on cell viability: Z-DEVD-fmk 25 μM 2 h pretreatment; for effect of caspase-8 inhibitor (Ac-IETD-CHO) on the DRA effect on cell viability: caspase-8 inhibitor 25 μM 2 h pretreatment; for effect of pan caspase inhibitor (z-VAD-fmk) on the DRA effect on cell viability: inhibitor 25 μM 2 h pretreatment
Protocol: FIG. 5. […] AsPC-1 cells were pretreated with either control peptide (25 μM) or caspase-3 inhibitor (Z-DEVD-fmk, 25 μM) for 2 h, followed by treatment with various doses of DRA11, DRA9 and DRA9S for 72 h. At the end of incubation, cell viability was measured by XTT assay. Data represent the mean±S.D. Control refers to a group treated with DMSO (0.01%).
FIG. 6. […] AsPC-1 cells were pretreated with either control peptide (25 μM) or caspase-8 inhibitor (25 μM) for 2 h, followed by treatment with various doses of DRA11, DRA9 and DRA9S for 72 h. At the end of incubation, cell viability was measured by XTT assay. Data represent the mean±S.D. Control refers to a group treated with DMSO (0.01%).
FIG. 7. […] AsPC-1 cells were pretreated with either control peptide (25 μM) or caspase-8 inhibitor (25 μM) for 2 h, followed by treatment with various doses of DRA11, DRA9 and DRA9S for 72 h. At the end of incubation, cell viability was measured by XTT assay. Data represent the mean±S.D. Control refers to a group treated with DMSO (0.01%).
(§1) XTT Assay. Cells (1×10^4 cells per well) were seeded in 96-well plates (flat bottom), and treated with death receptor agonists/activators/small molecules in the presence or absence of TNF-related apoptosis inducing ligand (TRAIL). Plates were incubated for various time points at 37° C. and 5% CO2. Before the end of the experiment, 50 μl XTT (sodium 3′[1-(phenylaminocarbonyl)-3,4-tetrazolium]-bis(4-methoxy-6-nitro) benzene sulfonic acid hydrate) labeling mixture (final concentration, 125 μM sodium XTT and 25 μM PMS) per well was added and plates were incubated for a further 4 h at 37° C. and 5% CO2. The spectrophotometric absorbance of the sample was measured using a microtitre plate (ELISA) reader. The wavelength to measure absorbance of the formazan product was 450 nm, and the reference wavelength was 650 nm.
AsPC-1 cells were pretreated with either control peptide (25 μM) or caspase-3 inhibitor (Z-DEVD-fink, 25 μM) for 2 h, followed by treatment with various doses of DRA11, DRA9 and DRA9S for 72 h. At the end of incubation, cell viability was measured by XTT assay. See, for example, FIG. 5. Data represent the mean±S.D. Control refers to a group treated with DMSO (0.01%).
AsPC-1 cells were pretreated with either control peptide (25 μM) or caspase-8 inhibitor (25 μM) for 2 h, followed by treatment with various doses of DRA11, DRA9 and DRA9S for 72 h. At the end of incubation, cell viability was measured by XTT assay. See, for example, FIG. 6. Data represent the mean±S.D. Control refers to a group treated with DMSO (0.01%).
AsPC-1 cells were pretreated with either control peptide (25 μM) or caspase-8 inhibitor (25 μM) for 2 h, followed by treatment with various doses of DRA11, DRA9 and DRA9S for 72 h. At the end of incubation, cell viability was measured by XTT assay. See, for example, FIG. 7. Data represent the mean±S.D. Control refers to a group treated with DMSO (0.01%).

[2] = test system: normal human hepatocytes; assay: XTT cell viability, normal hepatocytes; format: cell-based; settings: 0, 1, 3, 5 and 10 μM, 72 h
Protocol: FIGS. 59 A, B & C. DRAs has no effect on cell viability of normal human hepatocytes. Normal human hepatocytes were incubated with various concentrations of DRA11 (0, 1, 3, 5 and 10 μM) (FIG. 59A), DRA9S (0, 1, 3, 5 and 10 μM) (FIG. 59B), and DRA9 (0, 1, 3, 5 and 10 μM) (FIG. 59C) for 72 h. At the end of incubation period, cell viability was measured by XTT assay.
as §1

[3] = test system: human bronchial epithelial cells (Beas2B); assay: XTT cell viability, bronchial epithelial cells; format: cell-based; settings: 72 h
Protocol: FIG. 23. DRAs have no effect on cell viability in human bronchial epithelial cells (Beas2B). Beas2B cells were treated with DRA11, DRA9 and DRA9S for 72 h. At the end of incubation period, cell viability was measured by XTT assay. Data represent the mean±S.D. Control refers to group treated with DMSO (0.01%).
as §1
Beas2B cells were treated with DRA11, DRA9 and DRA9S for 72 h. At the end of incubation period, cell viability was measured by XTT assay. See, for example, FIG. 23. Data represent the mean ±S.D. Control refers to group treated with DMSO (0.01%).

[4] = test system: mesothelioma REN cell line; assay: XTT cell viability, mesothelioma REN; format: cell-based; settings: then DRA 72 h; for effect of NFκB inhibitor MG132 on the inhibitory effect on cell viability: MG132 2.5 μM 4 h
Protocol: FIG. 45. […] Mesothelioma REN cells were treated with NFκB inhibitor MG132 (2.5 μM) for 4 h followed by treatment with various concentrations of DRA11, DRA9, and DRA9S for 72 h. At the end of incubation, cell viability was measured by XTT assay. Data represent the mean±S.D.
FIG. 55. […] REN cells were pretreated with either control peptide (10 μM) or pan caspase inhibitor (z-VAD-fink, 25 μM) for 2 h, followed by treatment with various doses of DRA11, DRA9 and DRA9S for 72 h. At the end of incubation, cell viability was measured by XTT assay. Data represent the mean±S.D.
as §1

[5] = test system: mesothelioma MS1 cell line; assay: XTT cell viability, mesothelioma MS1; format: cell-based; settings: then DRA 72 h; for effect of NFκB inhibitor MG132 on the inhibitory effect on cell viability: MG132 2.5 μM 4 h
Protocol: FIG. 44. […] Mesothelioma MS1 cells were treated with NFκB inhibitor MG132 (2.5 μM) for 4 h followed by treatment with various concentrations of DRA11, DRA9, and DRA9S for 72 h. At the end of incubation, cell viability was measured by XTT assay. Data represent the mean±S.D.
FIG. 54. […] MS1 cells were pretreated with either control peptide (10 μM) or pan caspase inhibitor (z-VAD-fmk, 25 μM) for 2 h, followed by treatment with various doses of DRA11, DRA9 and DRA9S for 72 h. At the end of incubation, cell viability was measured by XTT assay. Data represent the mean±S.D.
as §1

[6] = test system: mesothelioma M9K cell line; assay: XTT cell viability, mesothelioma M9K; format: cell-based; settings: then DRA 72 h; for effect of NFκB inhibitor MG132 on the inhibitory effect on cell viability: MG132 2.5 μM 4 h; for effect of pan caspase inhibitor (z-VAD-fmk) on the inhibitory effect on cell viability: z-VAD-fmk 25 μM 2 h pretreatment
Protocol: FIG. 43. […] Mesothelioma M9K cells were treated with NFκB inhibitor MG132 (2.5 μM) for 4 h followed by treatment with various concentrations of DRA11, DRA9, and DRA9S for 72 h. At the end of incubation, cell viability was measured by XTT assay. Data represent the mean±S.D.
FIG. 52. […] M9K cells were pretreated with either control peptide (10 μM) or pan caspase inhibitor (z-VAD-fmk, 25 μM) for 2 h, followed by treatment with various doses of DRA11, DRA9 and DRA9S for 72 h. At the end of incubation, cell viability was measured by XTT assay. Data represent the mean±S.D.
as §1

[7] = z-VAD-fmk 25 μM 2 h pretreatment

Row | Compound | effect of caspase-3 inhibitor (z-DEVD-fmk) on the DRA effect on cell viability [1] | effect of caspase-8 inhibitor (Ac-IETD-CHO) on the DRA effect on cell viability [1] | effect of pan caspase inhibitor (z-VAD-fmk) on the DRA effect on cell viability [1] | effect on cell viability of normal human hepatocytes [2] | effect on cell viability in Beas2B cells [3] | effect of NFκB inhibitor MG132 on the inhibitory effect on cell viability [4] | effect of NFκB inhibitor MG132 on the inhibitory effect on cell viability [5] | effect of NFκB inhibitor MG132 on the inhibitory effect on cell viability [6] | effect of pan caspase inhibitor (z-VAD-fmk) on the inhibitory effect on cell viability [6] | effect of pan caspase inhibitor (z-VAD-fmk) on the inhibitory effect on cell viability [4, 7] | effect of pan caspase inhibitor (z-VAD-fmk) on the inhibitory effect on cell viability [5, 7]
1 | CCOc1cc(Br)c(Br)c(/C=N/c2cccc(C(=O)O)c2C)c1O [DRA9S] | blocks the effects | blocks the effects | blocks effects | no effect | no effect | enhances the inhibitory effects | enhances the inhibitory effects | enhances the inhibitory effects | blocks the inhibitory effects | – | –
2 | CCOc1cc(Br)c(Br)c(/C=N/c2cccc(C(=O)O)c2)c1O [DRA9] | blocks the effects | blocks the effects | blocks effects | no effect | no effect | enhances the inhibitory effects | enhances the inhibitory effects | enhances the inhibitory effects | blocks the inhibitory effects | blocks the inhibitory effects | blocks the inhibitory effects

Source: patent US7915245B2, “Methods and compositions of trail-death receptor agonists/activators” (The Board of Regents of the University of Texas System, priority 2007, dated 2011)
